# Laboratory results published in patent publication US8828976B2, “Identification and use of compounds that affect the fidelity of eukaryotic translation initiation codon selection” (priority 2010, dated 2014).
# Structures can show the parent of a compound that is named as a salt. Where two headings read alike, the source gives them in different places.
# Experiments:
# [1] = test system: AUG start codon of Fluc mRNA; experiment: Dual luciferase counter-screen (FlucAUG/RlucAUG), BY4741 with pFaugRaug; assay type: cell-based, Saccharomyces cerevisiae; details: for FlucAUG/RlucAUG ratio in the presence of compound: BY4741, screening conditions
# Method: The compounds were then tested in secondary assays.
# The dual luciferase assay was carried out as in Kolitz et al. (RNA, vol. 15, no. 1, pp. 138-152, 2009), with the following modifications to screening conditions: An over-night culture of wild type yeast (BY4741 transformed with pFuugRaug) were diluted to an OD600 of approximately 0.2 in SC-Ura, and 50 μL were aliquoted to each well of a 96 well plate. BY4741 expressing the RaugFaug plasmid was included in the 1st and last column as an additional control. Compounds to be tested were supplied from the NCI DTP library in 96 well format at 1 mM in DMSO. DMSO was included in all control wells. 1.5 μL of compound (or DMSO) was added to each well of the yeast plate, followed by incubation at 30° C. for 4 hours while shaking. To measure luciferase activity, 1 μL of culture was added directly to 50 μL of 1× Passive Lysis Buffer (Promega), incubated 40-60 minutes at room temperature, then luciferase activity measured using a Turner Modulus Microplate Reader (Kolitz et al., RNA, vol. 15, no. 1, pp. 138-152, 2009). The same protocol was used when testing the other libraries, with the appropriate solvent controls. The Fuug/Raug ratio of each sample with drug was compared to the average Fuug/Raug ratio of the solvent only controls on the same plate.
# Changes in the Fluc(UUG)/Rluc(AUG) ratio could be caused by a compound altering the use of UUG as a start codon (the desired target) or a variety of other effects such as changes in transcription of one gene, changes in mRNA or protein half-life, or inhibition or activation of one of the luciferase enzymes. […] Compounds that specifically increase use of near-cognate codons as start sites will not produce an effect in this Fluc(AUG)/Rluc(AUG) assay, whereas compounds that alter other process will not be specific for the Fluc(UUG)/Rluc(AUG) system and will still produce effects with the Fluc(AUG)/Rluc(AUG) reporter. Compounds that are not specific for effects on Fluc(UUG) expression will not be pursued further.
# [2] = test system: UUG start codon of Fluc mRNA (fidelity of start codon selection); experiment: Dual luciferase assay, primary screen (FlucUUG/RlucAUG), BY4741 with pFuugRaug; assay type: cell-based, Saccharomyces cerevisiae; details: for raw FlucUUG value: at concentrations that decrease the other luciferase values
# From the text: In the assay, Renilla luciferase (Rluc) and firefly luciferase (Fluc) genes are expressed from a single plasmid, each under the control of a separate constitutive promoter and terminator, allowing transcription of the two genes as separate mRNAs. The Fluc mRNA has a non-AUG start codon (FIG. 2A). […] UUG was chosen as the near cognate start site in the screen, allowing easy identification of compounds that either increase expression (chemically reproducing a Sui^− phenotype, decreasing fidelity) or decrease expression (enhancing fidelity) of UUG relative to AUG in the dual luciferase assay.
# BY4741 expressing the RaugFaug plasmid was included in the 1st and last column as an additional control. Compounds to be tested were supplied from the NCI DTP library in 96 well format at 1 mM in DMSO. DMSO was included in all control wells. 1.5 μL of compound (or DMSO) was added to each well of the yeast plate, followed by incubation at 30° C. for 4 hours while shaking. […] The same protocol was used when testing the other libraries, with the appropriate solvent controls. The Fuug/Raug ratio of each sample with drug was compared to the average Fuug/Raug ratio of the solvent only controls on the same plate.
# Every row contains DMSO-only controls for each strain. For each compound-treated sample, the ratio of [Fluc(UUG)/Rluc(AUG)]/[Fluc(AUG)/Rluc(AUG)] is calculated using the DMSO-only Fluc(AUG)/Rluc(AUG) control from that row (there is one for each row in a plate). This ratio is the Fluc(UUG)/Fluc(AUG) ratio normalized to Rluc(AUG) activity in each sample. […] Potential changes include pipetting inaccuracies, differences in lysis efficiencies or global effects on gene expression due to differences in cell densities during growth. The internal Rluc control also helps screen out compounds that affect gene expression or cell growth globally rather than having specific effects on translation from non-AUG codons.
# When a hit was identified, rescreening and counter screening assays were done using 300 μM to 10 nM of the compound, i.e., the identified “hit,” to measure concentration dependence.
# [3] = test system: FlucUUG/RlucAUG ratio in hc eIF1 strain; experiment: Dual luciferase assay in strain over-expressing eIF1 (H3984, hc eIF1); assay type: cell-based, Saccharomyces cerevisiae; details: hc eIF1 vs BY4741; for suppression of the compound's effect on UUG initiation by over-expression of eIF1: 60 μM NSC218351, 3.8 μM NSC92218
# Method: H3984 data are an average of 2 independent experiments. Error bars represent average deviation. The concentration of NSC218351 was 60 μM, and NSC92218 was 3.8 μM. Haplo-insufficiency results are averages of data from 2 separate transformants. The concentration of NSC218351 was 33 μM, and NSC92218 was 7 μM. FlucAUG/RlucAUG expression ratio with DMSO alone was used to normalize the Fluc/Rluc ratio for both FlucAUG and FlucUUG for each strain (normalized FlucAUG/RlucAUG with DMSO alone is 1 for each strain).
# Data, from 2 independent experiments, were analyzed.
# yeast cells = experiment: Growth / toxicity to wild type yeast
# [4] = test system: Sui- strain sui1-1 (eIF1 D83G); experiment: Growth assay of Sui- strain sui1-1 (his4-303) on SC-His / SC plates with compound-soaked paper strips; details: for growth of sui1-1 close to the compound source: paper strip with 10 mM NSC92218 or 50 mM NSC218351, FIG. 18 column 1 and 5
# From the text: Compound or solvent soaked paper strips were placed on agar plates. Yeast were spotted onto the plate as 4 rows increasingly distant from the paper strip and grown for 4 days on SC-His and 2 days on SC.
# An additional reporter assay utilizes a yeast strain in which the AUG start codon of the HIS4 gene has been changed to AUU (his4-303) (Huang et al., Genes Dev., vol. 11, pp. 2396-2413, 1997). This strain is a histidine auxotroph and cannot grow on medium lacking histidine. However, Sui^− mutations allow initiation from the AUU start site or, more commonly, a UUG three codons downstream from it, restoring expression of His4p and thus growth on His^− medium (Castilho-Valavicius et al., Genetics, vol. 124, pp. 483-495, 1990; Huang et al., Genes Dev., vol. 11, pp. 2396-2413, 1997; Yoon et al., Mol. Cell. Biol., vol. 12, pp. 248-260, 1992). Observing an alteration of the Sui^− phenotype is a more sensitive assay than rescuing growth of a wild type strain. […] Likewise, if the compound increases the fidelity of initiation, then growth should be compromised.
# Yeast with the his4-303 allele from an over-night culture were washed with water and diluted to an OD600 between 0.1-1. Strips of sterile Whatman paper were soaked with compound or solvent and placed on an agar plate of the appropriate media. The yeast culture was spotted onto the plate at various distances from the paper strips. The plates were incubated at 30° C. Diffusion creates a gradient of compound, which tends to enhance growth only in a certain range because of off-setting toxicity at high concentrations.
# Chemically increasing use of near-cognate codons as start codons mimics the Sui^− phenotype. Sui^− mutations were originally identified in a screen that requires translation initiation at a non-AUG start codon in a mutant of the HIS4 gene (his4-303 allele) for growth on SC-His media (Donahue et al., Mol. Cell. Biol., vol. 8, no. 7, pp. 2955-2963, 1988). Compounds that increase the use of non-AUG start codons to a small degree should further increase growth of Sui^− strains with the his4-303 allele on SC-His media, chemically enhancing the Sui^− phenotype. To test this, a paper strip saturated with compound was placed onto a plate of media (SC or SC-His). Yeast with the his4-303 allele was spotted on the plate at various distances from the compound- or solvent-containing strips.
# [5] = test system: UUG start codon of PRE2 uORF; experiment: uORF luciferase assay (PRE2 uORF with UUG start codon fused to firefly luciferase); assay type: cell-based, Saccharomyces cerevisiae; details: wild type yeast, normalized to DMSO alone
# Method: BY4741 was transformed with pNTI33 or pNTI32. Transformants were incubated with compound and luciferase activity measured as described for the dual luciferase assay. The solvent-only firefly luciferase activity was used for normalization.
# To further validate the effects of compounds that pass the primary and counterscreens, an additional reporter assay was performed. The assay uses a 5′-upstream open reading frame (uORF) that begins with a UUG codon and was shown in yeast to be translated, especially under amino acid starvation conditions (Castilho-Valavicius et al., Genetics, vol. 124, pp. 483-495, 1990). This uORF was fused both in-frame and out-of-frame to the firefly luciferase gene and the effect of the compounds on initiation on this physiologically relevant near-cognate start codon assessed.
# This construct was used to assess the effect of the compounds on translation mediated by the non-AUG start codon of the uORFs. The PRE2 uORF has an UUG start codon, with the consensus sequence (−3)AAA(−1) directly upstream of UUG (FIG. 15). In the control reporter, the luciferase coding region is out-of-frame from the start codon of the uORF.
# [6] = test system: Sui- strains with mutations in eIF1A, eIF2, and eIF5; experiment: Growth of Sui- strains with mutations in other initiation factors; assay type: cell-based, Saccharomyces cerevisiae
# From the text: (§1) While small, the effects are reproducible. No effects on growth of Sui^− strains with mutations in other initiation factors (eIF1A, eIF2, and eIF5) have been detected.
# [7] = test system: near-cognate start codons; experiment: Dual luciferase assay with Fluc reporters with different near-cognate start codons; assay type: cell-based, Saccharomyces cerevisiae; details: Fluc reporter with AUU start codon
# Method: AAG and AGG are not used detectably as Fluc initiation codons in yeast (Kolitz et al., RNA, vol. 15, no. 1, pp. 138-152, 2009) and were thus not tested. […] Efficiency of use of near cognate codons as initiation sites was measured with the dual luciferase assay in several Sui^− mutant strains. Translation from each alternative start codon in the Sui^− strain was normalized to translation from that codon in a wild type strain. Sui^− mutations increase the use of near cognates up to 18-fold (GUG in eIF1 D83G strain). However, in each mutant strain, translation from AUU is increased the least. Although it is not understood why AUU behaves anomalously, it is interesting that NSC218351 mimics this aspect of the behavior of the Sui^− mutations in initiation factors.
# Sui- mutant eIF1 D83G = experiment: Growth of Sui- mutant eIF1 D83G in His- culture (doubling time); assay type: cell-based, Saccharomyces cerevisiae; details: His- culture with compound; decreased from 8 hrs
# From the text: Doubling times were quantified for two experiments by plotting Log2(OD600) vs. time. The slope of the line between −2.5<Log2(OD600)<2 equals 1/doubling time.
# as §1
# [8] = analogs of NSC92218, 8 μM, ratio normalized to DMSO control
# [9] = 50 mM on the paper strip, SC-His
smiles,measurement,setting,value
"C[C@@H]1C[C@@H]([C@H](O)CC2CC(=O)NC(=O)C2)C(=O)[C@@H](C)C1 [cycloheximide, reference compound]",FlucAUG/RlucAUG ratio in the presence of compound,[1],also altered
same,effect on FlucUUG/RlucAUG ratio,[2]; BY4741 grown under screening conditions,altered
same,raw luciferase values relative to control values,"[2]; cells grown under screening conditions, four hours",~25%
"COc1cc(N)c2ncccc2c1Cl [Cpd 19, 5-chloro-6-methoxyquinolin-8-amine]",AUG/AUG (counter screen effect),[1]; [8],0.99
same,UUG/AUG (primary screen effect),[2]; [8],0.94
"Nc1cc(I)c2cccnc2c1O [NSC92218, 7-amino-5-iodo-8-quinolinol hydrochloride]",reduction of the compound's effect in the eIF1 over-expressing strain relative to wild type cells,[3]; 3.8 μM,~50%
same,suppression of the compound's effect on UUG initiation by over-expression of eIF1,[3],partially
same,FlucAUG/RlucAUG ratio in the presence of compound,[1],did not change
same,increase of the FlucUUG/RlucAUG ratio,[2],1.8 fold
same,minimal concentration required to achieve the 1.8-fold increase of the UUG/AUG ratio,[2],15 µM
same,raw FlucUUG value,[2],"did not change, or increases slightly"
same,concentration that does not affect growth of wild type yeast while the FlucUUG/RlucAUG ratio increases,yeast cells,2 µM
same,growth of sui1-1 in column 1 on SC-His relative to the inhibitory effect on SC,[4]; 2.5 mM on the paper strip,growth enhancement occurred
same,growth of sui1-1 on SC-His in columns 2 and 3,[4]; 10 mM on the paper strip,enhanced growth
same,growth of sui1-1 close to the compound source,[4],prevented growth
same,increase of expression of the in-frame PRE2 uORF-Fluc reporter,[5],~2 fold
"O=C(O)c1nccc2ccccc12 [NSC218351, isoquinoline-1-carboxylic acid]",suppression of the compound's effect on UUG initiation by over-expression of eIF1,[3],completely suppressed
same,FlucAUG/RlucAUG ratio in the presence of compound,[1],does not change
same,"minimal concentration for the effect, NSC218351 relative to NSC92218","[2]; 60 μM vs 15 μM, higher for NSC218351",4 fold
same,minimal concentration required to achieve the 1.8-fold increase of the UUG/AUG ratio,[2]; BY4741,60 µM
same,increase of the FlucUUG/RlucAUG ratio,"[2]; BY4741, 4 hours with compound, reached at 60 μM NSC218351 / 15 μM NSC92218",1.8 fold
same,raw FlucUUG value,[2],increased slightly
same,raw RlucAUG value,"[2]; pFuugRaug plasmid, increasing concentration",decreased
same,"growth of Sui- strains with mutations in other initiation factors (eIF1A, eIF2, and eIF5)",[6],No effects
same,toxicity to yeast cells,yeast cells,not toxic
same,concentration that does not affect growth of wild type yeast while the FlucUUG/RlucAUG ratio increases,yeast cells,50 µM
same,concentration at which growth was reduced,yeast cells; yeast,300 µM
same,working concentrations at which toxicity is not a concern,yeast cells; yeast,10 to 100 µM
same,growth of sui1-1 on SC-His in the column closest to the compound source,"[4]; 12.5 mM on the paper strip, column 1",enhanced
same,growth of sui1-1 on selective media close to the drug source,[4]; [9],inhibited
same,growth of sui1-1 on selective media farther from the source relative to DMSO,[4]; [9],enhanced
same,growth of the eIF1 Sui- strains on His- plates,[4]; His- plates,enhances the growth
same,growth of sui1-1 close to the compound source,[4],slowed growth
same,initiation at AUU codons,[7],did not increase
same,doubling time of eIF1 D83G,Sui- mutant eIF1 D83G,7.35 h
same,increase of expression of the in-frame PRE2 uORF-Fluc reporter,[5],approximately 1.5 fold
